One block for each compound: values may come before it.
Key:
[1] = Prodrug release in human HepG2 cells assessed as adefovir release by mass spectrometric analysis; assay type: ADME, cell-based
[2] = Prodrug release in human HepG2 cells assessed as tenofovir release by mass spectrometric analysis; assay type: ADME, cell-based
[3] = Drug metabolism in plasma of Sprague-Dawley rat assessed as hydrolyzed metabolite formation measured after 5 hrs by HPLC analysis; assay type: ADME, cell-free
[4] = Prodrug release in human HepG2 cells assessed as adefovir release measured over 1 hrs by HPLC analysis; assay type: ADME, cell-based; conditions: hepg2, 1 h
[5] = Prodrug release in human HepG2 cells assessed as tenofovir release measured over 1 hrs by HPLC analysis; assay type: ADME, cell-based; conditions: hepg2, 1 h
[6] = Clearance in Sprague-Dawley rat at 5 mg/kg, iv by LC-MS analysis; assay type: ADME, organism-based; conditions: in vivo
[7] = Clearance in Sprague-Dawley rat at 50 mg/kg, po by LC-MS analysis; assay type: ADME, organism-based; conditions: in vivo
[8] = AUC (0 to t) in Sprague-Dawley rat at 5 mg/kg, iv by LC-MS analysis; assay type: ADME, organism-based; conditions: in vivo
[9] = Toxicity in Kunming mouse assessed as effect on kidney size at 100 to 200 mg/kg, iv once daily for 5 days; assay type: organism-based; conditions: in vivo, 120 h, dose 100-200 mg/kg, time 5 day
[10] = Metabolic stability in rat liver microsomes assessed as half-life measured upto 60 mins by LC-MS/MS analysis; assay type: ADME, Microsome
[11] = test system: LX-2; assay: Cytotoxicity against human LX2 cells at 5 uM incubated for 48 hrs by CCK8 assay; assay type: toxicity, cell-based; conditions: lx-2, 48 h
[12] = Selectivity index, the ratio of CC50 for human HepG2.2.15 cells to EC50 for antiviral activity against HBV in human HepG2.2.15 cells assessed as inhibition of HBV DNA replication; assay type: toxicity, cell-based; conditions: read-out: Ratio CC50/EC50
[13] = Toxicity in Kunming mouse assessed as effect on liver weight at 100 to 200 mg/kg, iv once daily for 5 days; assay type: organism-based; conditions: in vivo, 120 h, dose 100-200 mg/kg, time 5 day
[14] = Tmax in Sprague-Dawley rat at 5 mg/kg, iv by LC-MS analysis; assay type: ADME, organism-based; conditions: in vivo
[15] = Toxicity in Kunming mouse assessed as maximum tolerated dose administered intravenously as once daily dose for 5 days; conditions: in vivo, route iv, time 5 day
[16] = AUC (0 to t) in Sprague-Dawley rat at 50 mg/kg, po by LC-MS analysis; assay type: ADME, organism-based; conditions: in vivo
[17] = Toxicity in Kunming mouse assessed as effect on body weight at 100 to 200 mg/kg, iv administered once daily for 5 days; assay type: organism-based; conditions: in vivo, 120 h, dose 100-200 mg/kg, time 5 day
[18] = Half-life in Sprague-Dawley rat at 50 mg/kg, po by LC-MS analysis; assay type: ADME, organism-based; conditions: in vivo
[19] = Toxicity in Kunming mouse assessed as histopathological changes in kidney at 200 mg/kg, iv once daily for 5 days by H and E staining based analysis; assay type: organism-based; conditions: in vivo, 120 h, time 5 day
[20] = AUC (0 to infinity) in Sprague-Dawley rat at 50 mg/kg, po by LC-MS analysis; assay type: ADME, organism-based; conditions: in vivo
[21] = Toxicity in Kunming mouse assessed as effect on heart weight at 100 to 200 mg/kg, iv once daily for 5 days; assay type: organism-based; conditions: in vivo, 120 h, dose 100-200 mg/kg, time 5 day
[22] = Toxicity in Kunming mouse assessed as effect on liver colour at 100 to 200 mg/kg, iv once daily for 5 days; assay type: organism-based; conditions: in vivo, 120 h, dose 100-200 mg/kg, time 5 day
[23] = Oral bioavailability in Sprague-Dawley rat at 50 mg/kg by LC-MS analysis; assay type: ADME, organism-based; conditions: in vivo
[24] = Tmax in Sprague-Dawley rat at 50 mg/kg, po by LC-MS analysis; assay type: ADME, organism-based; conditions: in vivo
[25] = test system: LX-2; assay: (§1) Cytotoxicity against human LX2 cells assessed as cell growth inhibition at 10 uM incubated for 48 hrs by CCK8 assay relative to control; assay type: toxicity, cell-based; conditions: lx-2, 48 h, 10 µM
[26] = Metabolic stability in human liver microsomes assessed as half-life measured upto 60 mins by LC-MS/MS analysis; assay type: ADME, Microsome
[27] = AUC (0 to infinity) in Sprague-Dawley rat at 5 mg/kg, iv by LC-MS analysis; assay type: ADME, organism-based; conditions: in vivo
[28] = Cmax in Sprague-Dawley rat at 50 mg/kg, po by LC-MS analysis; assay type: ADME, organism-based; conditions: in vivo
[29] = Toxicity in Kunming mouse assessed as histopathological changes in heart at 200 mg/kg, iv once daily for 5 days by H and E staining based analysis; assay type: organism-based; conditions: in vivo, 120 h, time 5 day
[30] = Cytotoxicity against human HepG2.2.15 cells assessed as inhibition of cell proliferation by CCK8 assay; assay type: toxicity, cell-based, HepG2 2.2.15
[31] = Toxicity in Kunming mouse assessed as effect on kidney colour at 100 to 200 mg/kg, iv once daily for 5 days; assay type: organism-based; conditions: in vivo, 120 h, dose 100-200 mg/kg, time 5 day
[32] = Half-life in Sprague-Dawley rat at 5 mg/kg, iv by LC-MS analysis; assay type: ADME, organism-based; conditions: in vivo
[33] = Toxicity in Kunming mouse assessed as effect on kidney weight at 100 to 200 mg/kg, iv once daily for 5 days; assay type: organism-based; conditions: in vivo, 120 h, dose 100-200 mg/kg, time 5 day
[34] = test system: Hepatitis B virus; assay: Antiviral activity against Hepatitis B virus infected in human HepG2.2.15 cells assessed as inhibition of HBV DNA replication incubated for 10 day by qPCR analysis; assay type: functional, organism-based; conditions: HepG2.2.15, 240 h
[35] = Drug uptake in Sprague-Dawley rat at 50 mg/kg, po or 5 mg/kg, iv measured after 2 to 3 hrs by LC-MS/MS analysis; assay type: ADME, organism-based; conditions: in vivo, time 2-3 hrs
[36] = Toxicity in Kunming mouse assessed as effect on liver size at 100 to 200 mg/kg, iv once daily for 5 days; assay type: organism-based; conditions: in vivo, 120 h, dose 100-200 mg/kg, time 5 day
[37] = Toxicity in Kunming mouse assessed as histopathological changes in liver at 200 mg/kg, iv once daily for 5 days by H and E staining based analysis; assay type: organism-based; conditions: in vivo, 120 h, time 5 day
[38] = Toxicity in Kunming mouse assessed as effect on heart colour at 100 to 200 mg/kg, iv once daily for 5 days; assay type: organism-based; conditions: in vivo, 120 h, dose 100-200 mg/kg, time 5 day
[39] = Toxicity in Kunming mouse assessed as effect on heart size at 100 to 200 mg/kg, iv once daily for 5 days; assay type: organism-based; conditions: in vivo, 120 h, dose 100-200 mg/kg, time 5 day
[40] = Cmax in Sprague-Dawley rat at 5 mg/kg, iv by LC-MS analysis; assay type: ADME, organism-based; conditions: in vivo
[41] = Drug uptake in Sprague-Dawley rat kidney at 10 mg/kg, iv measured after 1 to 6 hrs by LC-MS/MS analysis; assay type: ADME, organism-based; conditions: in vivo, time 1-6 hrs
[42] = as §1; assay type: toxicity, cell-based, LX-2; conditions: LX2 cells, read-out: GI

Structure (SMILES): CC(=O)N[C@H]1[C@H](OCCCCC(=O)NCCCNC(=O)CCOCC(COCCC(=O)NCCCNC(=O)CCCCO[C@@H]2O[C@H](CO)[C@H](O)[C@@H](O)[C@H]2NC(C)=O)(COCCC(=O)NCCCNC(=O)CCCCO[C@@H]2O[C@H](CO)[C@H](O)[C@@H](O)[C@H]2NC(C)=O)NC(=O)CCC(=O)NCCOCCOCCOCCOCCn2cc(COP(=O)(O)CO[C@H](C)Cn3cnc4c(N)ncnc43)nn2)O[C@H](CO)[C@H](O)[C@H]1O (racemic)
- Drug metabolism [1]: metabolite_detected
- Drug metabolism [2]: metabolite_detected
- Drug metabolism [3]: metabolite_notdetected
- Drug metabolism [4]: metabolite_detected
- Drug metabolism [5]: metabolite_detected

Structure (SMILES): CC(=O)N[C@H]1[C@H](OCCCCC(=O)NCCOCCOCCOCCOCCn2cc(COP(=O)(CO[C@H](C)Cn3cnc4c(N)ncnc43)OCOC(=O)C(C)(C)C)nn2)O[C@H](CO)[C@H](O)[C@H]1O (some centres not stated)
- clearance [6]: 40.7 mL/min/kg
- CL/F [7]: 172 mL/min/kg
- AUC(0-t) [8]: 2100 ng·h/mL
- Activity [9]: Non-toxic
- half-life [10]: 2.13 min
- Activity [11]: Toxic
- selectivity ratio [12]: > 468
- Activity [13]: Non-toxic
- Tmax [14]: 1.98 min
- MTD at 120 h [15]: ~200 mg/kg
- AUC(0-t) [16]: 4900 ng·h/mL
- Activity [17]: Non-toxic
- half-life [18]: 192 min
- Activity [19]: Non-toxic
- AUC(0-inf) [20]: 4930 ng·h/mL
- Activity [21]: Non-toxic
- Activity [22]: Non-toxic
- bioavailability [23]: 23.4%
- Tmax [24]: 45 min
- Activity [25]: Toxic
- half-life [26]: 12.4 min
- AUC(0-inf) [27]: 2130 ng·h/mL
- Cmax [28]: 1500 ng/mL
- Activity [29]: Non-toxic
- CC50 [30]: > 100000 nM
- Activity [31]: Non-toxic
- half-life [32]: 67.2 min
- Activity [33]: Non-toxic
- EC50 [34]: 214 nM
- Drug uptake [35]: Not_active
- Activity [36]: Non-toxic
- Activity [37]: Non-toxic
- Activity [38]: Non-toxic
- Activity [39]: Non-toxic
- Cmax [40]: 2030 ng/mL

Structure (SMILES): CC(C)OC(=O)OCOP(=O)(CO[C@H](C)Cn1cnc2c(N)ncnc21)OCOC(=O)OC(C)C.O=C(O)/C=C/C(=O)O [TENOFOVIR DISOPROXIL FUMARATE]
- Drug uptake [41]: Active
- Activity [11]: Non-toxic
- selectivity ratio [12]: 43.7
- inhibition at 48 h, 10 µM [42]: ~30%
- CC50 [30]: 8200 nM
- EC50 [34]: 188 nM

- Drug uptake [41]: Active
- EC50 [34]: 240 nM
Structure (SMILES): CC(C)(C)C(=O)OCOP(=O)(COCCn1cnc2c(N)ncnc21)OCOC(=O)C(C)(C)C [ADEFOVIR DIPIVOXIL]
- Activity [11]: Non-toxic
- selectivity ratio [12]: 44.6
- inhibition at 48 h, 10 µM [42]: ~30%
- CC50 [30]: 10700 nM
